Experimental data published in patent US4764506A, “N^6 -(benzothien-3-yl)ethyl adenosine; N^6 -(benzothien-3-yl)ethyl adenosine, S-oxide; and N^6 -(benzothien-3-yl)ethyl S,S-dioxide adenosine” (Warner-Lambert Company, priority 1986, dated 1988).

Tests used:
[1] = target: T1, adenosine A1 receptor (Rattus norvegicus, UniProt P25099); assay: Adenosine Receptor Binding--A1 Receptor Affinity (RBA1), [3H]-CHA displacement, rat whole brain membranes; parameters: species or system rat (Long Evans); conditions: 1.0 nM [3H]-CHA, pH 7.7, 25° C., read-out: RBA-1
T1 construct: Whole brain minus cerebellum and brainstem from male Long Evans rats; from tissue; host or cells: rat whole brain minus cerebellum and brainstem, membranes (male Long Evans)
T1 sequence (P25099 1-326): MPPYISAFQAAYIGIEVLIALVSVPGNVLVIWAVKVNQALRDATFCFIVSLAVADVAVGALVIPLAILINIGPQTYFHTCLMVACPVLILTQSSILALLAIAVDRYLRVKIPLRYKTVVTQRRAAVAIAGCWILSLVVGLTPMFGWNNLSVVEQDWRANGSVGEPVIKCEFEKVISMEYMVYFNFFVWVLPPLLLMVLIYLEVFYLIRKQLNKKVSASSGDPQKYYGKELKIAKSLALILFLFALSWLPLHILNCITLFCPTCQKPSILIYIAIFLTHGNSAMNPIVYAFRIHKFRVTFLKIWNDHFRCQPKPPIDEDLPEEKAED
Procedure: Whole brain minus cerebellum and brainstem from male Long Evans rats (150-200 g) was homogenized in 30 volumes of ice-cold 0.05 M Tris-HCl buffer pH 7.7 using a Brinkman Polytron PT-10, (setting number 6 for 20 seconds) and centrifuged for ten minutes at 20,000×g (Sorvall RC-2), 4° C. The supernatant was discarded, and the pellet was resuspended and centrifuged as before. The pellet was resuspended in 20 ml Tris-HCl buffer containing two International Units/ml of adenosine deaminase (Sigma type III from calf intestinal mucosa), incubated at 37° C. for 30 minutes, then subsequently at 0° C. for ten minutes. The homogenate was again centrifuged, and the final pellet was resuspended in ice-cold 0.05 M Tris-HCl buffer pH 7.7 to a concentration of 20 mg/ml original wet tissue weight and used immediately.
Tissue homogenate (10 mg/ml) was incubated in 0.05 M Tris-HCl buffer pH 7.7 containing 1.0 nM [^3 H]-N^6 -cyclohexyladenosine (^3 H]-CHA) with or without test agents in triplicate for one hour at 25° C. Incubation volume was 2 ml. Unbound [^3 H]-CHA was separated by rapid filtration under reduced pressure through Whatman glass fiber (GF/B) filters. The filters were rinsed three times with 5 ml of ice cold 0.05 M Tris-HCl buffer pH 7.7. The radio-labeled ligand retained on the filter was measured by liquid scintillation spectrophotometry after shaking the filters for one hour or longer on a mechanical shaker in 10 ml of Beckman Ready-Solv HP scintillation cocktail.
Nonspecific binding was defined as the binding which occurred in the presence of 1 mM theophylline. The concentration of test agent which inhibited 50% of the specific binding (IC50) was determined by nonlinear computer curve fit. The Scatchard plot was calculated by linear regression of the line obtained by plotting the amount of radioligand bound [formula] Since the amount of radioligand bound was a small fraction of the total amount added, free radioligand was defined as the concentration (nM) of radioligand added to the incubation mixture. The Hill coefficient was calculated by linear regression of the line obtained by plotting the log of the bound radioligand vs the log of the [formula] The maximal number of binding sites (Bmax) was calculated from the Scatchard plot.

[2] = target: T2, adenosine A2 receptor (Rattus norvegicus, UniProt P30543); assay: Adenosine Receptor Binding--A2 Receptor Affinity (RBA2), [3H]NECA displacement, rat striatal membranes; parameters: species or system rat (Sprague-Dawley); conditions: 4 nM [3H]NECA, 50 nM N6-cyclopentyladenosine, rat striatum, 25° C., read-out: RBA-2
T2 construct: Brains were thawed and then kept on ice while the striata were dissected out; tissue Pel-Freez (Rogers, Ark.); host or cells: rat striatum, membranes (mixed sex Sprague-Dawley)
T2 sequence (P30543 whole entry): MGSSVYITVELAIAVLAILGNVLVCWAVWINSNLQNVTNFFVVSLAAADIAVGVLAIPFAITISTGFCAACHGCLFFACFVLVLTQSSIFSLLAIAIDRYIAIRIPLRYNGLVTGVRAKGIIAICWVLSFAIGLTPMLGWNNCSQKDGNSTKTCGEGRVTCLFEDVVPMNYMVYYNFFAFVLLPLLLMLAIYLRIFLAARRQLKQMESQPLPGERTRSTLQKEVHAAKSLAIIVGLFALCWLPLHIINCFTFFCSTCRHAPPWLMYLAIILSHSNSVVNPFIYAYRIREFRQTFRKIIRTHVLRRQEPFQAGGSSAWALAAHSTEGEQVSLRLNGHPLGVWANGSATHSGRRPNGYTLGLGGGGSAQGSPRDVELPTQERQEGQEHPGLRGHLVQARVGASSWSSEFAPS
Procedure: Brains from 200-500 g mixed sex Sprague-Dawley rats were purchased from Pel-Freez (Rogers, Ark.). Fresh brains from male Long-Evans hooded rats (Blue Spruce Farms, Altamont, N.Y.) gave essentially identical results. Brains were thawed and then kept on ice while the striata were dissected out. Striata were disrupted in 10 vol of ice-cold 50 mM Tris.HCl (pH 7.7 at 25° C., pH 8.26 at 5° C.) (Tris) for 30 seconds in a Polytron PT-10 (Brinkmann) at setting 5. The suspension was centrifuged at 50,000 xg for ten minutes, the supernatant discarded, the pellet resuspended in 10 vol ice-cold Tris as above, recentrifuged, resuspended at 1 g/5 ml, and stored in plastic vials at -70° C. (stable for at least six months). When needed, tissue was thawed at room temperature, disrupted in a Polytron, and kept on ice until used.
All incubations were for 60 minutes at 25° C. in 12×75 mm glass tubes containing 1 ml Tris with 5 mg original tissue weight of rat weight of rat striatal membranes, 4 nM [^3 H]-N-ethyl adenosine-5'-carboxamide ([^3 H]NECA), 50 nM N^6 -cyclopentyladenosine (to eliminate A1 receptor binding), 10 mM MgCl2, 0.1 units/ml of adenosine deaminase and 1% dimethylsulfoxide. N^6 -Cyclopentyladenosine was dissolved at 10 mM in 0.02N HCl and diluted in Tris. Stock solutions and dilutions of N^6 -cyclopentyladenosine could be stored at -20° C. for several months. Test compounds were dissolved at 10 mM in dimethylsulfoxide on the same day as the experiment, and diluted in dimethylsulfoxide to 100× the final incubation concentration. Control incubations received an equal volume (10 μl) of dimethylsulfoxide; the resulting concentration of dimethylsulfoxide had no effect on binding. [^3 H]NECA was diluted to 40 nM in Tris. The membrane suspension (5 mg/0.79 ml) contained sufficient MgCl2 and adenosine deaminase to give 10 mM and 0.1 units/ml, respectively, final concentration in the incubation. […]
Incubations were terminated by filtration through 2.4 cm GF/B filters under reduced pressure. […] Filters were put in scintillation vials, 8 ml of Formula 947 scintillation fluid added, and the vials left overnight, shaken, and counted in a liquid scintillation counter at 40% efficiency.
Nonspecific binding was defined as binding in the presence of 100 μM N^6 -cyclopentyladenosine, and specific binding was defined as total binding minus nonspecific binding. The IC50 was calculated by weighted nonlinear least squares curve-fitting to the mass-action equation. […]
Weighting factors were calculated under the assumption that the standard deviation was proportional to the predicted value of Y. Nonspecific binding was treated as a very large (infinite) concentration of drug in the computer analysis.

[3] = Mouse Activity and Screen Test Procedure (MAST): inhibition of spontaneous locomotion (actophotometer) and overall dose rating; assay type: in vivo, mouse (Swiss-Webster, male); conditions: IP
Excerpt: (§1) The compounds of the invention are new chemical substances which are useful as pharmaceutical agents for the treatment of psychoses. The antipsychotic activity of representative compounds of the invention was established by the Mouse Activity and Screen Test Procedure (MAST) described below.
(§2) Nine unfasted Swiss-Webster male mice weighing 20-30 g are equally divided into three groups for each drug dose to be tested. That is, data for each dose level was generated by three separate groups of three mice each.
(§3) A minimum of three dose levels (10, 30, and 100 mg/kg) are tested for each drug. Treatments are administered intraperitoneally one hour prior to testing. All dosages are calculated as parent compound and given in volumes of 10 ml/kg. Compounds are dissolved or suspended in 0.2% Methocel. Control animals are injected with Methocel.
(§4) Testing: A two part testing procedure is started one hour postinjection. First, the screen test (ST) is performed (see Pharmac. Biochem. Behav. 6, 351-353, 1977). Briefly this test consists of placing mice on individual wire screens which are then rotated 180 degrees at the start of a 60 second observation period. The number of mice falling off the inverted screen is recorded.
Immediately following the screen test, the final phase of testing is initiated by placing each group of three mice in one actophotometer (Life Sciences, 22, 1067-1076, 1978). The actophotometer consists of a cylindrical chamber whose center is occupied by another cylinder which contains the illumination for six photocells located on the perimeter of the chamber. Six light-beam interruptions equal one count. Locomotor activity is recorded by computer at ten minute intervals for 60 minutes.
(§5) Data: The data obtained from the screen test are expressed as percent of mice falling off the screen. Data derived from locomotor activity of drug treated mice are compared to the activity of vehicle treated animals and are expressed as percent inhibition of spontaneous locomotion. All percentages reported for inhibition of locomotion (LI) are based upon data accumulated for one hour. Both phases of testing are graded: A=60-100%; C=31-59%; and N=0-30%. An overall dose rating is obtained by the following criteria:
(§6) LAD refers to the lowest dose at which an A rating is achieved. […] Utilizing this procedure, an overall dose rating of A was obtained for the noted compound at the indicated dose. The compounds are identified in the Examples.

[4] = Mouse Activity and Screen Test Procedure (MAST): screen test (mice falling off inverted screen); assay type: in vivo, mouse (Swiss-Webster, male); conditions: IP
Excerpt: as §1, §2, §3, §4, §5, §6

[5] = Mouse Activity and Screen Test Procedure (MAST): inhibition of spontaneous locomotion (actophotometer) and overall dose rating; assay type: in vivo, mouse (Swiss-Webster, male); conditions: PO
[6] = Mouse Activity and Screen Test Procedure (MAST): screen test (mice falling off inverted screen); assay type: in vivo, mouse (Swiss-Webster, male); conditions: PO

Structure (SMILES)	IC50 [1] [nM]	IC50 [2] [nM]	Inhibition of Mouse Locomotion Activity ([3]; 3 mg/kg) [%]	Inhibition of Mouse Locomotion Activity ([3]; 10 mg/kg) [%]	Inhibition of Mouse Locomotion Activity ([3]; 30 mg/kg) [%]	Screen Test Failure ([4]; 3 mg/kg) [%]	Screen Test Failure ([4]; 10 mg/kg) [%]	Screen Test Failure ([4]; 30 mg/kg) [%]	Inhibition of Mouse Locomotion Activity ([5]; 3 mg/kg) [%]	Inhibition of Mouse Locomotion Activity ([5]; 10 mg/kg) [%]	Inhibition of Mouse Locomotion Activity ([5]; 30 mg/kg) [%]	Screen Test Failure ([6]; 3 mg/kg) [%]	Screen Test Failure ([6]; 10 mg/kg) [%]	Screen Test Failure ([6]; 30 mg/kg) [%]
COc1ccc2c(CCNc3ncnc4c3ncn4[C@@H]3O[C@H](CO)[C@@H](O)[C@H]3O)csc2c1 [Example 1, N-[2-(6-methoxybenzo[b]thien-3-yl)ethyl]adenosine]	7.7	343	23	48	92	0	11	11	12	42	84	17	0	44
OC[C@H]1O[C@@H](n2cnc3c(NCCc4csc5ccccc45)ncnc32)[C@H](O)[C@@H]1O [Example 2, N-[2-(benzo[b]thien-3-yl)ethyl]adenosine]	12	303	21	30	63	0	11	0	–	–	–	–	–	–
OC[C@H]1O[C@@H](n2cnc3c(NCCc4csc5ccc(Cl)cc45)ncnc32)[C@H](O)[C@@H]1O [Example 3, N-[2-(5-chlorobenzo[b]thien-3-yl)ethyl]adenosine]	4.5	549	27	54	86	0	0	0	–	–	–	–	–	–
Cc1ccc2scc(CCNc3ncnc4c3ncn4[C@@H]3O[C@H](CO)[C@@H](O)[C@H]3O)c2c1 [Example 4, N-[2-(5-methylbenzo[b]thien-3-yl)ethyl]adenosine]	4.3	413	48	63	89	0	0	0	–	–	–	–	–	–
